# According to the supplement of paper PMC10307832:
# Columns and labels:
# Experiment in all cases: relative viability (nuclei count vs DMSO), 5 days (fraction); higher = more cells survive
# [1] = compound: CC[C@H](C)N1C=C(C2=C(C=C(C=C21)C3=CN=C(C=C3)N4CCNCC4)C(=O)NCC5=C(C=C(NC5=O)C)C)C [GSK126] + C[C@]1(O)C[C@@H](c2nc(-c3ccc4ccc(-c5ccccc5)nc4c3)c3c(N)nccn32)C1 [Linsitinib] (partner 1 µM)
# Summary of the method: (§1)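 One day after seeding in 1536-well plates, lung cancer cell lines were dosed by pin tool. Dosing was either single-drug or a fixed anchor-drug dose plus five library-drug doses (not always all listed) in √10 steps. After 5 days, nuclei were stained in one fix-and-stain step and counted on 4× images, and relative viability is the nuclei count of treated wells over that of vehicle wells, given as the median of duplicate plates.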
# [2] = compound: CC[C@H](C)N1C=C(C2=C(C=C(C=C21)C3=CN=C(C=C3)N4CCNCC4)C(=O)NCC5=C(C=C(NC5=O)C)C)C [GSK126] + O=C(c1cc(Cc2n[nH]c(=O)c3ccccc23)ccc1F)N1CCN(C(=O)C2CC2)CC1 [Olaparib] (partner 8 µM)
# Summary of the method: as §1
# [3] = compound: NS(=O)(=O)OC[C@@H]1C[C@@H](n2ccc3c(N[C@H]4CCc5ccccc54)ncnc32)C[C@@H]1O [MLN4924] + C[C@@H](Oc1cc(-c2cnn(C3CCNCC3)c2)cnc1N)c1c(Cl)ccc(F)c1Cl [Crizotinib] (partner 1 µM)
# Summary of the method: as §1
# [4] = compound: CC[C@H](C)N1C=C(C2=C(C=C(C=C21)C3=CN=C(C=C3)N4CCNCC4)C(=O)NCC5=C(C=C(NC5=O)C)C)C [GSK126] + CC(C)C[C@H](NC(=O)[C@H](Cc1ccccc1)NC(=O)c1cnccn1)B(O)O [Bortezomib] (partner 0.002 µM)
# Summary of the method: as §1
cell line,measurement,setting,value
UMC-11,relative viability,[1]; first compound 0.08 µM,1.14
same,relative viability,[1]; first compound 0.253 µM,0.978
same,relative viability,[1]; first compound 0.8 µM,1.04
same,relative viability,[1]; first compound 2.53 µM,1.02
same,relative viability,[1]; first compound 8 µM,1.15
same,relative viability,[2]; first compound 0.08 µM,0.345
same,relative viability,[2]; first compound 0.253 µM,0.364
same,relative viability,[2]; first compound 0.8 µM,0.394
same,relative viability,[2]; first compound 2.53 µM,0.376
same,relative viability,[2]; first compound 8 µM,0.361
same,relative viability,[3]; first compound 0.04 µM,0.298
same,relative viability,[3]; first compound 0.1265 µM,0.184
same,relative viability,[3]; first compound 0.4 µM,0.234
same,relative viability,[3]; first compound 1.265 µM,0.0782
same,relative viability,[3]; first compound 4 µM,0.0855
same,relative viability,[4]; first compound 0.08 µM,0.842
same,relative viability,[4]; first compound 0.253 µM,0.628
same,relative viability,[4]; first compound 0.8 µM,0.747
same,relative viability,[4]; first compound 2.53 µM,0.643
same,relative viability,[4]; first compound 8 µM,0.895
